# Experimental data from PMC8997165, “Transcriptional CDK Inhibitors as Potential Treatment Option for Testicular Germ Cell Tumors” (Cancers, 2022).
# How the values were obtained:
# Type in all cases: cell-based, human
# TGCT cell lines = experiment: XTT cell viability assay, summarised over TGCT tumor cell lines; conditions: Homo sapiens; 72 h, tumor (TGCT) cell lines, XTT viability; read-out: IC50 at 72 h, range over tumor cell lines
# Method: (§1) The following cell lines were used 2102EP, 2102EP-R, NCCIT, NCCIT-R (all ECs), TCam2 (seminoma cell line), FS1 (Sertoli cell line) and MPAF (human adult fibroblast cell line). Cells were cultivated as described previously. In brief, the ECs were cultivated in Dulbecco’s modified Eagle’s medium (DMEM) supplemented with 10% fetal bovine serum (FBS), 1% penicillin–streptomycin and […] L-glutamine. FS1 cells were grown in DMEM supplemented with 20% FSB, 1% penicillin–streptomycin, 200 mM L-glutamine and 1% nonessential amino acids (NEAA). MPAF cells were cultured in DMEM supplemented with 10% FBS, 1% penicillin–streptomycin, 200 mM L-glutamine and 1% NEAA. TCam2 cell line was cultured in RPMI medium supplemented with 10% FBS, 1% penicillin–streptomycin and […] L-glutamine. All cell lines were kept at 37 °C and 7.5% CO2. 2102EP and NCCIT were a kind gift from Prof. Dr. L. Looijenga (Princess Máxima Center for Pediatric Oncology, Utrecht, The Netherlands). Cisplatin-resistant lines 2102EP-R and NCCIT-R were obtained from PD Dr. F. Honecker (Breast and Tumor Center, ZeTup Silberturm, St. Gallen, Switzerland). MPAFs were a kind gift from […] (Bonn University, Institute of Reconstructive Neurobiology, Bonn, Germany). FS1 cells were obtained from Prof. Dr. V. Schumacher (Boston Children’s Hospital, Department of Urology; Harvard Medical School, Department of Surgery, Boston, MA, USA).
# (§2) The assay was performed based on the reduction in XTT tetrazolium salt as described previously. In summary, 3000 cells were seeded per well of a 96-well cell culture plate in 100 µL of cell culture medium. The next day, cells were treated with CDK inhibitor or CDK degrader for 24/48/72 h. For XTT assay, 0.6 mg/mL XTT sodium salt was dissolved in cell culture medium (DMEM or RPMI) and supplemented with 25 µM electron carrier N-methyl dibenzopyrazine methyl sulfate (PMS). A total of 50 µL of XTT/PMS was added to each well and incubated for 4 h at 37 °C, 7.5% CO2. For readout, absorption was measured at 450 nm and 650 nm. Specific XTT signal (450 nm) was subtracted by nonspecific absorbance (650) and blank (cell culture medium). Averages of technical triplicates were calculated, and treated sample was referenced to the corresponding dimethyl sufoxide (DMSO) control. Experiment was repeated several times to obtain biological replicates. For statistical analysis, two-tailed Student’s t-test was applied.
# FS1 cells = experiment: XTT cell viability assay, FS1 Sertoli control
# Method: as §1, §2
# MPAF cells = experiment: XTT cell viability assay, MPAF fibroblast control; conditions: for IC50: XTT viability
# Method: as §1, §2
# TCam2 cells = experiment: XTT cell viability assay, TCam2
# Method: as §1, §2
# NCCIT cells = experiment: XTT cell viability assay, NCCIT
# Method: as §1, §2
# 2102EP cells = experiment: XTT cell viability assay, 2102EP
# Method: as §1, §2
# NCCIT-R cells = experiment: XTT cell viability assay, NCCIT-R (cisplatin-resistant)
# Method: as §1, §2
# 2102EP-R cells = experiment: XTT cell viability assay, 2102EP-R (cisplatin-resistant)
# Method: as §1, §2
# [1] = test system: TGCT and control cell lines; experiment: Hoechst-FACS cell cycle analysis; conditions: 20 h; NVP2 and SY0351 10 nM, YKL-5-124 and THZ531 100 nM
# Method: (§3) Cells were seeded in 6-well cell culture plates (1.5 × 10^5 cells/well). […] For cell cycle analysis, cells were harvested after 20 h of treatment and resuspended in PBS. Ice-cold methanol was added dropwise while shaking until 70% methanol v/v was reached. Cells were incubated for 2 h at 4 °C and subsequently washed twice with cold PBS. Staining (2 µg/mL Hoechst-33342, 50 µg/mL RNaseA in PBS) was performed for 30 min at 37 °C. The cell cycle distribution was measured in an FACS Canto (BD BioSciences, Heidelberg, Germany) and analyzed using FlowJo™ v10.8 Software (BD BioSciences, Heidelberg, Germany). For apoptosis analysis, PE AnnexinV Apoptosis Detection Kit with 7-AAD (BioLegend, San Diego, CA USA) was used according to the manufacturer’s manual. Measurement was performed in an FACS Canto while analysis was performed in the corresponding BD FACSDiva software^TM (BD BioSciences, Heidelberg, Germany). Two-tailed Student’s t-test was applied for calculation of significance.
# [2] = test system: TGCT and control cell lines; experiment: 7AAD/AnnexinV FACS apoptosis analysis, TGCT and control cell lines; conditions: 100 nM, 24 and 48 h
# Method: as §3
structure (smiles),measurement,setting,value
CC(C)(C)c1cnc(CSc2cnc(NC(=O)C3CCN(CC(=O)NCCOCCOCCOCCNc4cccc5c4C(=O)N(C4CCC(=O)NC4=O)C5=O)CC3)s2)o1 (stereo not drawn) [THAL-SNS-032],IC50,TGCT cell lines,30 to 40 nM
same,IC50,"FS1 cells; Homo sapiens, FS1, 24 h",> 1000 nM
same,IC50,"FS1 cells; Homo sapiens, FS1, 48 h",> 1000 nM
same,IC50,"FS1 cells; Homo sapiens, FS1, 72 h",> 1000 nM
same,viability (XTT),MPAF cells; 1 and 10 nM,not affected
same,viability (XTT),MPAF cells; 100 and 500 nM,minimal decrease in viability
same,IC50,"MPAF cells; Homo sapiens, Fibroblast, 24 h",> 1000 nM
same,IC50,"MPAF cells; Homo sapiens, Fibroblast, 48 h",> 1000 nM
same,IC50,"MPAF cells; Homo sapiens, Fibroblast, 72 h",> 1000 nM
same,IC50,"TCam2 cells; Homo sapiens, TCam2, 24 h",140 nM
same,IC50,"TCam2 cells; Homo sapiens, TCam2, 48 h",76.7 nM
same,IC50,"TCam2 cells; Homo sapiens, TCam2, 72 h",39.6 nM
same,IC50,"NCCIT cells; Homo sapiens, 24 h",149 nM
same,IC50,"NCCIT cells; Homo sapiens, 48 h",50.6 nM
same,IC50,"NCCIT cells; Homo sapiens, 72 h",30.1 nM
same,IC50,"2102EP cells; Homo sapiens, 24 h",164 nM
same,IC50,"2102EP cells; Homo sapiens, 48 h",39.5 nM
same,IC50,"2102EP cells; Homo sapiens, 72 h",34.8 nM
CN(C)C/C=C/C(=O)Nc1ccc(C(=O)Nc2cccc(Nc3ncc(Cl)c(-c4c[nH]c5ccccc45)n3)c2)cc1 [THZ1],IC50,"FS1 cells; FS1, 24 h",> 1000 nM
same,IC50,"FS1 cells; FS1, 48 h",> 1000 nM
same,IC50,"FS1 cells; FS1, 72 h",> 1000 nM
same,IC50,MPAF cells; 24 h,> 1000 nM
same,IC50,MPAF cells; 48 h,> 1000 nM
same,IC50,MPAF cells; 72 h,> 1000 nM
same,IC50,"TCam2 cells; TCam2, 24 h",> 1000 nM
same,IC50,"TCam2 cells; TCam2, 48 h",> 1000 nM
same,IC50,"TCam2 cells; TCam2, 72 h",847 nM
same,IC50,NCCIT cells; 24 h,> 1000 nM
same,IC50,NCCIT cells; 48 h,92.9 nM
same,IC50,NCCIT cells; 72 h,9.3 nM
same,IC50,NCCIT-R cells; 24 h,929 nM
same,IC50,NCCIT-R cells; 48 h,145 nM
same,IC50,NCCIT-R cells; 72 h,16.2 nM
same,IC50,2102EP-R cells; 24 h,235 nM
same,IC50,2102EP-R cells; 48 h,16.3 nM
same,IC50,2102EP-R cells; 72 h,9.9 nM
same,IC50,2102EP cells; 24 h,95.6 nM
same,IC50,2102EP cells; 48 h,26.3 nM
same,IC50,2102EP cells; 72 h,6.7 nM
CN(C)C/C=C/C(=O)Nc1ccc(C(=O)N2CCC[C@@H](Nc3ncc(Cl)c(-c4c[nH]c5ccccc45)n3)C2)cc1 [THZ531],effect on cell cycle,[1],only mild effects on the cell cycle
same,IC50,"FS1 cells; Homo sapiens, FS1, 24 h",> 1000 nM
same,IC50,"FS1 cells; Homo sapiens, FS1, 48 h",> 1000 nM
same,IC50,"FS1 cells; Homo sapiens, FS1, 72 h",> 1000 nM
same,IC50,"MPAF cells; Homo sapiens, Fibroblast, 24 h",> 1000 nM
same,IC50,"MPAF cells; Homo sapiens, Fibroblast, 48 h",> 1000 nM
same,IC50,"MPAF cells; Homo sapiens, Fibroblast, 72 h",> 1000 nM
same,IC50,"TCam2 cells; Homo sapiens, TCam2, 24 h",> 1000 nM
same,IC50,"TCam2 cells; Homo sapiens, TCam2, 48 h",> 1000 nM
same,IC50,"TCam2 cells; Homo sapiens, TCam2, 72 h",> 1000 nM
same,IC50,"NCCIT cells; Homo sapiens, 24 h",> 1000 nM
same,IC50,"NCCIT cells; Homo sapiens, 48 h",> 1000 nM
same,IC50,"NCCIT cells; Homo sapiens, 72 h",96.6 nM
same,apoptosis induction,[2]; tumor cell lines,moderate increase in apoptosis induction
same,IC50,"NCCIT-R cells; Homo sapiens, 24 h",> 1000 nM
same,IC50,"NCCIT-R cells; Homo sapiens, 48 h",> 1000 nM
same,IC50,"NCCIT-R cells; Homo sapiens, 72 h",137 nM
same,IC50,"2102EP-R cells; Homo sapiens, 24 h",> 1000 nM
same,IC50,"2102EP-R cells; Homo sapiens, 48 h",228 nM
same,IC50,"2102EP-R cells; Homo sapiens, 72 h",164 nM
same,IC50,"2102EP cells; Homo sapiens, 24 h",> 1000 nM
same,IC50,"2102EP cells; Homo sapiens, 48 h",180 nM
same,IC50,"2102EP cells; Homo sapiens, 72 h",74.5 nM
C=CC(=O)Nc1ccc(C(=O)Nc2[nH]nc3c2CN(C(=O)N[C@H](CN(C)C)c2ccccc2)C3(C)C)cc1 [YKL-5-124],effect on cell cycle,[1],only mild effects on the cell cycle
same,IC50,"FS1 cells; FS1, 24 h",> 1000 nM
same,IC50,"FS1 cells; FS1, 48 h",> 1000 nM
same,IC50,"FS1 cells; FS1, 72 h",95.2 nM
same,IC50,MPAF cells; 24 h,> 1000 nM
same,IC50,MPAF cells; 48 h,> 1000 nM
same,IC50,MPAF cells; 72 h,> 1000 nM
same,viability (XTT),MPAF cells; highest concentration tested (500 nM),unaffected
same,IC50,"TCam2 cells; TCam2, 24 h",> 1000 nM
same,IC50,"TCam2 cells; TCam2, 48 h",> 1000 nM
same,IC50,"TCam2 cells; TCam2, 72 h",263 nM
same,IC50,NCCIT cells; 24 h,> 1000 nM
same,IC50,NCCIT cells; 48 h,> 1000 nM
same,IC50,NCCIT cells; 72 h,121 nM
same,"apoptosis, fold change over DMSO control",[2],up to 2.8 fold
same,"apoptosis, treatment vs control",[2]; FS1 and MPAF cells,almost no difference between treatment and control
same,IC50,NCCIT-R cells; 24 h,> 1000 nM
same,IC50,NCCIT-R cells; 48 h,> 1000 nM
same,IC50,NCCIT-R cells; 72 h,178 nM
same,IC50,2102EP-R cells; 24 h,> 1000 nM
same,IC50,2102EP-R cells; 48 h,30.5 nM
same,IC50,2102EP-R cells; 72 h,23.6 nM
same,IC50,2102EP cells; 24 h,318 nM
same,IC50,2102EP cells; 48 h,43.6 nM
same,IC50,2102EP cells; 72 h,17.2 nM
